Columns and labels:
Colo205 cells = assay: Cell-based proliferation assay for determination of GI50 values (CyQUANT); set-up: species or system human
Method in brief: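 Colo205 cells in RPMI 1640 with 5% FBS, seeded 5000/well and grown 24 h at 37 °C. Exposure to compound lasted 96 h, with growth read by CyQUANT. GI50 = concentration giving 50% growth inhibition, from dose-response curves.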

[1] = target: HDAC1 enzyme (recombinant GST-HDAC1) (Homo sapiens (Human), UniProt Q13547); assay: In vitro HDAC assay for determination of IC50 values (BIOMOL fluorescent-based HDAC activity assay); assay type: biochemical; details: Flur de lys substrate, 2 h room temperature, read-out: IC50 (HDAC 1)
Sequence of HDAC1 enzyme (recombinant GST-HDAC1) (Q13547 whole entry): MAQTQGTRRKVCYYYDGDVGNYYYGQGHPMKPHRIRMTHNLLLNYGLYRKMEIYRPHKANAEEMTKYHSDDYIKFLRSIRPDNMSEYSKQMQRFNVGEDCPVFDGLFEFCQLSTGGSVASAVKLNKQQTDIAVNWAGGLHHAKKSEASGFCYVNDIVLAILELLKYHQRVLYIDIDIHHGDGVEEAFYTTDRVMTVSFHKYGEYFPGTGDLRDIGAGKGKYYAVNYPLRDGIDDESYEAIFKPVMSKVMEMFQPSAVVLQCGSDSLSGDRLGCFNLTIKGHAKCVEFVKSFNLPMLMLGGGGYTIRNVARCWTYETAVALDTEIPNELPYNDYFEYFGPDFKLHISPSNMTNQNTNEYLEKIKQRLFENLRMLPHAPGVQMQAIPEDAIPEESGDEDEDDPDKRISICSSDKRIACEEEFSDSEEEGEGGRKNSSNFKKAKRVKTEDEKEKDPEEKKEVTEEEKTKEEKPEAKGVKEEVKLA
Method in brief: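 Recombinant human GST-HDAC1, baculovirus-expressed in SF9 cells and glutathione-purified, tested with a fluorogenic deacetylase substrate; Fluor de Lys developer added for 10 min. Fluorescence at 360 nm excitation/460 nm emission; IC50 fitted from a concentration series.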

[2] = Homo sapiens, COLO 205, 96 h treatment
[3] = Homo sapiens, COLO 205, 96 h, 96 h treatment

For `CCCN(CCO)Cc1c(-c2ccccc2)nc2cc(/C=C/C(=O)NO)ccn12` [Compound 48, N-Hydroxy-3-(3-{[(2-hydroxy-ethyl)-propyl-amino]-methyl}-2-phenyl-imidazo[1,2-a]pyridin-7-yl)-acrylamide], the GI50 (Colo205 cells; [2]) was 9200 nM and the IC50 [1] was 1000 nM.

`CCCCCCc1nc2cc(/C=C/C(=O)NO)ccn2c1NCCC(=O)NCC(C)(C)CN(C)C` [Compound 35, 3-{3-[2-(3-Dimethylamino-2,2-dimethyl-propylcarbamoyl)-ethylamino]-2-hexyl-imidazo[1,2-a]pyridin-7-yl}-N-hydroxy-acrylamide] was tested, and the GI50 (Colo205 cells; [2]) was 9300 nM and the IC50 [1] was 140 nM.

`CCc1nc2cc(/C=C/C(=O)NO)ccn2c1CN(CC)CCC(C)C` [Compound 139, 3-(2-Ethyl-3-{[ethyl-(3-methyl-butyl)-amino]-methyl}-imidazo[1,2-a]pyridin-7-yl)-N-hydroxy-acrylamide] showed a GI50 (Colo205 cells; [2]) of 100 nM and an IC50 [1] of 20 nM.

`CCN(Cc1c(C(C)(C)C)nc2cc(/C=C/C(=O)NO)ccn12)CC1CCCCC1` [Compound 98, 3-{2-tert-Butyl-3-[(cyclohexylmethyl-ethyl-amino)-methyl]-imidazo[1,2-a]pyridin-7-yl}-N-hydroxy-acrylamide] gave a GI50 (Colo205 cells; [3]) of 1100 nM and an IC50 [1] of 190 nM.

`CCCCc1nc2cc(/C=C/C(=O)NO)ccn2c1CN(CCC)CCC` [Compound 74, 3-(2-Butyl-3-dipropylaminomethyl-imidazo[1,2-a]pyridin-7-yl)-N-hydroxy-acrylamide] gave a GI50 (Colo205 cells; [2]) of 610 nM and an IC50 [1] of 200 nM.

`CCCCN(CC)Cc1c(CCC)nc2cc(/C=C/C(=O)NO)ccn12` [Compound 132, 3-{3-[(Butyl-ethylamino)-methyl]-2-propyl-imidazo[1,2-a]pyridin-7-yl}-N-hydroxy-acrylamide] showed a GI50 (Colo205 cells; [2]) of 160 nM and an IC50 [1] of 40 nM.

With `CCC(CC)CN(C)Cc1c(C(C)(C)C)nc2cc(/C=C/C(=O)NO)ccn12` [Compound 107, 3-(2-tert-Butyl-3-{[(2-ethyl-butyl)-methyl-amino]-methyl}-imidazo[1,2-a]pyridin-7-yl)-N-hydroxy-acrylamide] the GI50 (Colo205 cells; [2]) was 2300 nM and the IC50 [1] was 410 nM.

In the case of `CC(C)(C)NCc1c(-c2ccccc2)nc2ccc(/C=C/C(=O)NO)cn12` [Compound 65, 3-[3-(tert-Butylamino-methyl)-2-phenyl-imidazo[1,2-a]pyridin-6-yl]-N-hydroxy-acrylamide], the GI50 (Colo205 cells; [2]) is reported as 62000 nM and the IC50 [1] is reported as > 10000 nM.

`COCCNc1c(CC(C)CC(C)(C)C)nc2c(/C=C/C(=O)NO)cccn12` (stereo not drawn) [Compound 16, (E)-N-hydroxy-3-(3-(2-methoxyethylamino)-2-(2,4,4-trimethylpentyl)imidazo[1,2-a]pyridin-8-yl)acrylamide] was tested, and the GI50 (Colo205 cells; [2]) was 20000 nM and the IC50 [1] was > 10000 nM.

`CCN(CC)Cc1c(-c2ccccc2)nc2ccc(/C=C/C(=O)NO)cn12` [Compound 103, 3-(3-Diethylaminomethyl-2-phenyl-imidazo[1,2a]pyridin-6-yl)-N-hydroxy-acrylamide] was tested, and the GI50 (Colo205 cells; [2]) was 41000 nM and the IC50 [1] was > 10000 nM.

`COCCNc1c(CCc2ccccc2)nc2ccc(/C=C/C(=O)NO)cn12` [Compound 5, N-Hydroxy-3-[3-(2-methoxy-ethylamino)-2-phenethyl-imidazo[1,2-a]pyridin-6-yl]-acrylamide] was tested, and the GI50 (Colo205 cells; [2]) was 27000 nM and the IC50 [1] was 350 nM.

Work on `CCCCCCc1nc2cc(C=CC(=O)NO)ccn2c1NCCC(=O)NC(C)(C)C` [Compound 22, 3-[3-(2-tert-Butylcarbamoyl-ethylamino)-2-hexyl-imidazo[1,2-a]pyridin-7-yl]-N-hydroxy-acrylamide] yielded a GI50 (Colo205 cells; [2]) of 19000 nM and an IC50 [1] of 140 nM.

`CCCCCCc1nc2cc(/C=C/C(=O)NO)ccn2c1NCCC(=O)NCCCC` [Compound 21, 3-[3-(2-Butylcarbamoyl-ethylamino)-2-hexyl-imidazo[1,2-a]pyridin-7-yl]-N-hydroxy-acrylamide] was tested, and the GI50 (Colo205 cells; [2]) was 13000 nM and the IC50 [1] was 130 nM.

`O=C(/C=C/c1ccn2c(CNCC3CC3)c(-c3ccccc3)nc2c1)NO` [Compound 61, 3-{3-[(Cyclopropylmethyl-amino)-methyl]-2-phenyl-imidazo[1,2-a]pyridin-7-yl}-N-hydroxy-acrylamide] gave a GI50 (Colo205 cells; [2]) of 560 nM and an IC50 [1] of 80 nM.

`CCCCN(CC)Cc1c(CC(C)C)nc2cc(/C=C/C(=O)NO)ccn12` [Compound 134, 3-{3-[(Butyl-ethyl-amino)-methyl]-2-isobutyl-imidazo[1,2-a]pyridin-7-yl}-N-hydroxy-acrylamide] gave a GI50 (Colo205 cells; [3]) of 150 nM and an IC50 [1] of 40 nM.

`CCCCc1nc2cc(/C=C/C(=O)NO)ccn2c1CN(CC)CC(C)(C)C` [Compound 115, 3-(2-Butyl-3-{[(2,2-dimethyl-propyl)-ethyl-amino]-methyl}-imidazo[1,2-a]pyridin-7-yl)-N-hydroxy-acrylamide] was tested, and the GI50 (Colo205 cells; [2]) was 950 nM and the IC50 [1] was 160 nM.

`CCCCCc1nc2cc(/C=C/C(=O)NO)ccn2c1NCCOC` [Compound 17, (E)-N-hydroxy-3-(3-(2-methoxyethylamino)-2-pentylimidazo[1,2-a]pyridin-7-yl)acrylamide] showed a GI50 (Colo205 cells; [2]) of 9900 nM and an IC50 [1] of 300 nM.

Compound `CCCCc1nc2cc(/C=C/C(=O)NO)ccn2c1CNC(C)(C)C` [Compound 73, 3-[2-Butyl-3-(tert-butylamino-methyl)-imidazo[1,2-a]pyridin-7-yl]-N-hydroxy-acrylamide] has a GI50 (Colo205 cells; [3]) of 140 nM and an IC50 [1] of 20 nM.

For `CCCCCCc1nc2cc(/C=C/C(=O)NO)ccn2c1NCCC(=O)NCC(F)(F)F` [Compound 23, 3-{2-Hexyl-3-[2-(2,2,2-trifluoro-ethylcarbamoyl)-ethylamino]-imidazo[1,2-a]pyridin-7-yl}-N-hydroxy-acrylamide], the GI50 (Colo205 cells; [2]) was 15000 nM and the IC50 [1] was 160 nM.

`CCCN(Cc1c(C(C)(C)C)nc2cc(/C=C/C(=O)NO)ccn12)C(C)C` [Compound 102, 3-{2-tert-Butyl-3-[(isopropyl-propyl-amino)-methyl]-imidazo[1,2-a]pyridin-7-yl}-N-hydroxy-acrylamide] showed a GI50 (Colo205 cells; [2]) of 2500 nM and an IC50 [1] of 300 nM.

In the case of `CCN(CC)Cc1c(-c2ccccc2)nc2cc(/C=C/C(=O)NO)ccn12` [Compound 51, 3-(3-Diethylaminomethyl-2-phenyl-imidazo[1,2-a]pyridin-7-yl)-N-hydroxy-acrylamide], the GI50 (Colo205 cells; [2]) is reported as 1100 nM and the IC50 [1] is reported as 200 nM.

`CCN(Cc1c(C)nc2cc(C=CC(=O)NO)ccn12)CC(C)(C)C` [Compound 111, 3-(3-{[(2,2-Dimethyl-propyl)-ethyl-amino]-methyl}-2-methyl-imidazo[1,2a]pyridin-7-yl)-N-hydroxy-acrylamide] showed a GI50 (Colo205 cells; 96 h treatment) of 600 nM and an IC50 [1] of 50 nM.

`CCN(Cc1c(C(C)(C)C)nc2cc(/C=C/C(=O)NO)ccn12)CC1CCOC1` (stereo not drawn) [Compound 96, 3-(2-tert-Butyl-3-{[ethyl-(tetrahydro-furan-3-ylmethyl)-amino]-methyl}-imidazo[1,2-a]pyridin-7-yl)-N-hydroxy-acrylamide] showed a GI50 (Colo205 cells; [2]) of 3400 nM and an IC50 [1] of 370 nM.

`CCCCN(C)Cc1c(-c2ccccc2)nc2cc(/C=C/C(=O)NO)ccn12` [Compound 71, 3-{3-[(Butyl-methyl-amino)-methyl]-2-phenyl-imidazo[1,2-a]pyridin-7-yl}-N-hydroxy-acrylamide] was tested, and the GI50 (Colo205 cells; [2]) was 1000 nM and the IC50 [1] was 120 nM.

With `CC(C)Cc1nc2cc(/C=C/C(=O)NO)ccn2c1CNC(C)(C)C` [Compound 133, 3-[3-(tert-Butylamino-methyl)-2-isobutyl-imidazo[1,2-a]pyridin-7-yl]-N-hydroxy-acrylamide] the GI50 (Colo205 cells; [2]) was 210 nM and the IC50 [1] was 50 nM.

For `CCN(CC)Cc1c(C(C)(C)C)nc2cc(/C=C/C(=O)NO)ccn12` [Compound 80, 3-(2-tert-Butyl-3-diethylaminomethyl-imidazo[1,2-a]pyridin-7-yl)-N-hydroxy-acrylamide], the GI50 (Colo205 cells; [3]) was 4400 nM and the IC50 [1] was 1200 nM.

With `CCCCCCc1nc2ccc(/C=C/C(=O)NO)cn2c1NCCC(=O)NCC` [Compound 18, (E)-3-(3-(3-(ethylamino)-3-oxopropylamino)-2-hexylimidazo[1,2-a]pyridin-6-yl)-N-hydroxyacrylamide] the GI50 (Colo205 cells; [2]) was 12000 nM and the IC50 [1] was 630 nM.

`CCCCCCc1nc2cc(/C=C/C(=O)NO)ccn2c1NCCC(=O)N(C)CCN(C)C` [Compound 32, 3-(3-{2-[(2-Dimethylamino-ethyl)-methyl-carbamoyl]-ethylamino}-2-hexyl-imidazo[1,2a]pyridin-7-yl)-N-hydroxy-acrylamide] gave a GI50 (Colo205 cells; [2]) of 2800 nM and an IC50 [1] of 240 nM.

Compound `CCCCc1nc2cc(/C=C/C(=O)NO)ccn2c1CN(CC)CCC(C)C` [Compound 114, 3-(2-Butyl-3-{[ethyl-(3-methyl-butyl)-amino]-methyl}-imidazo[1,2-a]pyridin-7-yl)-N-hydroxy-acrylamide] has a GI50 (Colo205 cells; [2]) of 90 nM and an IC50 [1] of 20 nM.

With `CCCCCc1nc2cc(/C=C/C(=O)NO)ccn2c1CN(CC)CCC(C)C` [Compound 130, 3-(3-{[Ethyl-(3-methyl-butyl)-amino]-methyl}-2-pentyl-imidazo[1,2-a]pyridin-7-yl)-N-hydroxy-acrylamide] the GI50 (Colo205 cells; [3]) was 140 nM and the IC50 [1] was 30 nM.

In the case of `O=C(/C=C/c1ccc2nc(CCc3ccccc3)c(Nc3ccc4c(c3)OCO4)n2c1)NO` [Compound 4, 3-[3-(Benzo[1,3]-dioxol-5-ylamino)-2-phenethyl-imidazo[1,2-a]pyridin-6-yl]-N-hydroxy-acrylamide], the GI50 (Colo205 cells; [2]) is reported as 2800 nM and the IC50 [1] is reported as 640 nM.

For `CCCCCCc1nc2cc(/C=C/C(=O)NO)ccn2c1NCCC(=O)NCCSC` [Compound 25, 3-{2-Hexyl-3-[2-(2-methylsulfanyl-ethylcarbamoyl)-ethylamino]-imidazo[1,2-a]pyridin-7-yl}-N-hydroxy-acrylamide], the GI50 (Colo205 cells; [2]) was 2100 nM and the IC50 [1] was 73 nM.

`CCCCNc1c(CCCC)nc2ccc(/C=C/C(=O)NO)cn12` [Compound 13, 3-(2-Butyl-3-butylamino-imidazo[1,2-a]pyridin-6-yl)-N-hydroxy-acrylamide] gave a GI50 (Colo205 cells; [2]) of 8900 nM and an IC50 [1] of 720 nM.
